Like-named read-outs stand apart in the source and are kept apart here.
Columns and labels:
[1] = molecular target: T1, TYR from Agaricus bisporus (AbTYR) (Agaricus bisporus, UniProt C7FF04); parameters: purchased Sigma Chemical Co. (St. Louis, MO, USA); details: previous paper; read-out: IC50, inhibition of AbTYR; cited from earlier work
[2] = positive control; read-out: EC50 [μM], antioxidant activity (ABTS); cited from earlier work
[3] = test system: B16F10 cells; assay: Cell viability assay (MTT); format: cell-based, Murine; details: 48 h; for cytotoxic effect (MTT): until a concentration of 10 μM
Procedure: Murine melanoma B16F10 cells (CRL‐6475) were cultured as previous reported.[17]
3‐(4,5‐Dimethylthiazol‐2‐yl)‐2,5‐diphenyltetrazolium bromide (MTT) was used to measure the cells viability. Cells were seeded in 96‐well plates for 24 hours with a density of 5x10^3 for well. Cells were then treated for 48 h with compounds (ranging from 4 μM to 100 μM). After incubation at 37 °C and 5 % of CO2, 100 μL of MTT reagent were added to the cells and incubated 3 h at 37 °C. After adding DMSO the absorbance was determined at 560 nm. The amount of living cells in treated samples relative to untreated controls (100 %) provided the cell viability. The mean value and standard deviation (SD) were calculated from triplicate experiments.
different concentrations of compounds (4-100 μM) and their viability was evaluated by MTT assay. Data
represent mean ± SD of triplicate experiments.

[4] = test system: tyrosinase activity in α‐MSH‐stimulated B16F10 cells; assay: Tyrosinase zymography (L-DOPA staining) in α-MSH-stimulated B16F10 cells; format: cell-based, Murine; details: Mus musculus, B16-F10, α-MSH (100 nM)-stimulated B16F10 cells, 48 h, read-out: inhibition of tyrosinase activity / melanogenesis
Procedure: ImageJ software was used to determine the intensity of bands.
A day after seeding the B16F10 cells (6×10^4 cells/mL) the culture medium was substituted by fresh one supplemented with 100 nM α‐MSH.
After incubation for 48 h, cells were washed and lysed using phosphate buffer (25 mM, pH 6.8) containing Triton X‐100 (1 %) and phenylmethyl‐sulfonyl fluoride (0.1 mM). Cellular lysates were centrifugated at 13000 rpm for 20 min at 4 °C. The protein content was determined by Bradford method and BSA was used as standard.
SDS‐polyacrylamide gel electrophoresis was used to resolve the protein extracts previously mixed with 10 mM Tris‐HCl buffer, pH 7.0, containing 1 % SDS, without mercaptoethanol.
After running, gel was rinsed in phosphate buffer (0.1 M, pH 7.0) and equilibrated for 30 min twice. […] Tyrosinase activity was visualized in the gel as dark melanin‐containing bands

[5] = ABTS radical scavenging antioxidant assay; details: mean ± SD of three independent experiments
Procedure: ABTS [2,20‐azinobis‐(3‐ethylbenzothiazoline‐6‐sulfonic acid)] assay was used to determine the total free radical‐scavenging capacity of compounds. 6‐hydroxy‐2,5,7,8‐tetramethylchromane‐2‐carboxylic acid (Trolox) was used as the reference antioxidant.[15]
The ABTS⋅^+ method is based on the capacity of an antioxidant to scavenge the free ABTS⋅^+. To produce this radical an aqueous mixture of 7 mM ABTS with 2.45 mM potassium persulfate was required.
The ABTS solution was kept in the dark, at room temperature, for 24 h before use. The ABTS⋅^+ mixture was diluted, and each compound (10 μL) was added to solution. After 1 min of incubation the absorbance was recorded at 734 nm. Afterwards the decrease in A734 was calculated and referred to the Trolox standard curve. Antioxidant activity was expressed as concentration of the compound to give a 50 % reduction in the original absorbance (EC50).

[6] = molecular target: T1, TYR from Agaricus bisporus (AbTYR); assay: Inhibition of monophenolase activity of AbTYR (L-Tyr as substrate); format: biochemical; parameters: purchased Sigma Chemical Co. (St. Louis, MO, USA); details: 40 μM (Figure S69)
Procedure: Mushroom tyrosinase inhibition assay
6.8). […] Subsequently, 0.05 mL of
L-tyrosine or L-DOPA, respectively.
respect to control sample.
positive standard (10–50 μM).
was used for absorbance measurements.
Kinetic analysis of the tyrosinase inhibition

[7] = molecular target: T1, TYR from Agaricus bisporus (AbTYR); assay: Inhibition of diphenolase activity of AbTYR (L-DOPA as substrate); details: for IC50: IC50 [μM]±SD, inhibition of diphenolase activity of AbTYR, L-DOPA substrate, three replicates;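 for all read-outs here: absorbance measured spectrophotometrically with L-DOPA as substrate, inhibition expressed as percent relative to control sample, IC50 interpolated from dose-response curves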
Procedure: (§1) absorbance was measured after 60 or 1 min of incubation time in the reaction mixture containing
(§2) L-tyrosine or L-DOPA, respectively. The inhibitory activity was expressed as inhibition percentage
(§3) calculated by interpolation of the dose-response curves. Kojic acid [5-hydroxy-2-(hydroxymethyl)-
(§4) 4H-pyran-4-one], a fungal secondary metabolite used as skin whitening agent, was employed as a
(§5) positive standard (10–50 μM). A spectrophotometer (Agilent Cary 60 UV-Vis Spectrophotometer)
(§6) The inhibition kinetics on the tyrosinase were studied using Lineweaver-Burk double reciprocal
(§7) plots. The reaction mixture consisted of four different concentrations of the substrate L-DOPA
(§8) (0.6–5 mM), and mushroom tyrosinase in phosphate buffer (0.05 M, pH 6.8). Three different
(§9) concentrations were used for the analysis. Preincubation and measurement time were the same
(§10) as discussed in mushroom tyrosinase inhibition assay. The Michaelis-Menten constant (Km) and
(§11) maximal velocity (Vmax) of tyrosinase were determined by Lineweaver-Burk plots.

[8] = molecular target: T1, TYR from Agaricus bisporus (AbTYR); assay: Kinetic analysis of AbTYR inhibition (Lineweaver-Burk plots, L-DOPA); details: L-DOPA 0.6–5 mM, three inhibitor concentrations, phosphate buffer pH 6.8
Procedure: Kinetics studies were performed in presence of three different concentrations of selected inhibitors, L‐DOPA (0.6–5 mM) and AbTYR in phosphate buffer (0.05 M, pH 6.8).
as §1, §2, §3, §4, §5, §6, §7, §8, §9, §10, §11

T1 sequence (C7FF04 1-392 limits assumed): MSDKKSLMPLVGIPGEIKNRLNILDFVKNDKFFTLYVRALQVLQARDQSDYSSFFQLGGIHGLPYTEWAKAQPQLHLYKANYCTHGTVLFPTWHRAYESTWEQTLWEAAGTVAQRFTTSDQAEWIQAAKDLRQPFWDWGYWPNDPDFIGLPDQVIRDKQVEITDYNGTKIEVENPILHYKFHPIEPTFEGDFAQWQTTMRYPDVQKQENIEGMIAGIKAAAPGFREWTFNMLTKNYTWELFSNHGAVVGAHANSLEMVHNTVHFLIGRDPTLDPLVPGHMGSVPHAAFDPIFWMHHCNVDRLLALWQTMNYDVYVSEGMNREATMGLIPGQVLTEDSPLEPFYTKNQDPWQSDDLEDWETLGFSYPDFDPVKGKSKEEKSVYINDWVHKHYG

Question: Which IC50 [1] does the source give for `O=C(CN1CCC(Cc2ccccc2)CC1)N1CCN(c2ccc(O)cc2)CC1` [A, 2‐(4‐benzyl‐1‐piperidinyl)‐1‐[4‐(4‐hydroxyphenyl)piperazin‐1‐yl]ethenone] here?
Answer: Its IC50 is 3.8 µM.

Question: Which EC50 [2] does the source give for `Cc1c(C)c2c(c(C)c1O)CCC(C)(C(=O)O)O2` (stereo not drawn) [Trolox, 6‐hydroxy‐2,5,7,8‐tetramethylchromane‐2‐carboxylic acid] here?
Answer: The EC50 was 13 ± 1.1 µM.

Question: What does the source list for `O=C(c1ccc(Cl)cc1Cl)N1CCN(c2ccc(O)cc2)CC1` [compound 10, (4‐(4‐Hydroxyphenyl)piperazin‐1‐yl)(2,4‐dichlorophenyl)methanone]?
Answer: cell viability (MTT) ([3]; until 25 μM): good cell viability; cytotoxic effect (MTT) [3]: no cytotoxic effect; inhibition at 1 µM ([4]; 1 μM): 44%; inhibition at 10 µM ([4]; 10 μM): 73%; inhibition at 25 µM ([4]; 25 μM): 88%; EC50 [5]: 9 ± 0.3 µM; melting point: 177 to 178 °C; inhibitory effect on monophenolase activity of AbTYR [6]: active inhibitors; IC50 [7]: 1.5 ± 0.1 µM; mechanism of inhibition of AbTYR [8]: competitive inhibitors

Question: Which “cytotoxic effect (MTT)” value [3] does the source give for `COc1ccccc1C(=O)N1CCN(c2ccc(O)cc2)CC1` [compound 21, [4‐(4‐Hydroxyphenyl)piperazin‐1‐yl](2‐methoxyphenyl)methanone] here?
Answer: Its value is “no cytotoxic effect”.

Question: And the EC50 [5]?
Answer: The EC50 was 9.2 ± 0.2 µM.

Question: And the “inhibitory effect on monophenolase activity of AbTYR” value [6]?
Answer: The value was “active inhibitors”.

Question: What about the “fold more potent than reference compound KA” value [7] of the same compound?
Answer: The value was “about 3.5 fold”.

Question: And the IC50 [7]?
Answer: Its IC50 is 3.5 ± 0.2 µM.

Question: What about the “mechanism of inhibition of AbTYR” value [8] of the same compound?
Answer: The value was “competitive inhibitors”.
